The values below come from US7067158B2, “Preparation for the relief of disease” (AKL Technologies Limited, priority 2001, dated 2006).

Data set [1] is described as follows: Treatment of laminitis in horses. The format is in vivo. As to conditions: horse L: on Bute for two months. The protocol:
(§1) The loading dose is from three to ten days according to individual perceived clinical need. After the loading dose, the maintenance dose follows for a minimum (normally) of 30 days continuing as needed. The doses are scaled according to individual size/body weight. The dose was added as a powder in the animals' feed.
(§2) JMJ, FRA and D-Tox are available from Nutrilabs of Penrhos, Raglan, Monmouthshire. They are used to make the following Example compositions according to the invention, which were used in Examples A to AA below. The following gives a daily dose for a 450 kg horse. With any of the following Example Compositions during ANY acute phase, a loading dose of 3 times the daily dose may be used to assist a rapid return to ‘well being’.

The test system of a further data set is platelets. Briefly: Born aggregometry: ADP-induced platelet aggregation in platelet rich plasma (PRP). The format is cell-based, human. As to conditions: ADP 4×10^−6 M. The protocol:
Extracts of components were prepared by stirring macerated samples overnight in methanol. The mixtures were centrifuged, the supernatants drawn off and dried to remove all traces of the extracting solvent. Resulting solids were re-suspended in normal saline (0.9% w/v NaCl) at saturated concentrations.
Extracts 2, 5 and 8 were reconstituted in 0.9% saline at saturated concentrations.
Citrated whole blood, from healthy volunteers, was spun at 900 rpm for 20 minutes to obtain platelet rich plasma (PRP). Born aggregometry was then carried out within 1 hour of blood being taken. Extracts 2, 5, and 8 were added to 450 μl PRP either singly (6 μl), or in combination with one other extract (3 μl each), or all the extracts in combination (2 μl each). PRP was then stimulated with ADP (Sigma) 4×10^−6 M. 6 μl of saline was added to PRP for the control. Aggregation was measured in a PAP4C aggregometer (BioData Corp. Horsham USA) over 10 minutes.
The dose of agonist was chosen to give slightly sub-optimal aggregation thus showing the maximum effect of any inhibition. Doses of extracts were chosen to show the effect on platelets when used alone and any added and/or synergistic effect of using combinations. All data is recorded as the maximum aggregation.

The nature of data set [2]: Treatment of COPD in horses. As to conditions: horse K: COPD. It counts as in vivo. The protocol:
as §1, §2

The test system of data set [3] is Platelet Activating Factor (PAF). As to conditions: cited from earlier work.

For the compound `CCCCC1C(=O)N(c2ccccc2)N(c2ccccc2)C1=O` [Bute], the adverse reaction entry in data set [1] was “ulcers around the mouth and sores on the muzzle”. Turning to `COc1cc(C(C)=O)ccc1O` [Extract 2, Apocynin], in the data set with platelets, the “effect on platelet aggregation in response to ADP (in words)” value was “reduced platelet aggregation in response to ADP”. In the case of `CC(C)(C)NCC(O)c1cc(Cl)c(N)c(Cl)c1` (stereo not shown) [Ventipulmin, clenbuterol], in data set [2], the “clinical outcome (owner report)” value is reported as “had no effect”. As to `CC1C(=O)OC2C(O)C34C5CC(C(C)(C)C)C36C(OC(=O)C6O)OC4(C(=O)O5)C12O` (stereo not shown) [ginkgolide B], the PAF inhibiting activity result in data set [3] was “potent”.
